For orientation: IC50 means the concentration at which inhibition is half-maximal. The low end stands for higher potency, the high end for lower potency.

Consider six compounds from patent US20050009924A1 (priority 2003, published 2005).

A value given as a limit tells only on which side of the number the result lay.

Series [1] has as its system transcriptional activity of hTERT. The series can be described thus: SEAP reporter assay of hTERT expression, PhTERT-SEAP (hTERT-BJ1). The class given is cell-based, human. Particulars: PhTERT-SEAP (hTERT-BJ1). A digest of the protocol:
(§1)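 SEAP activity, read as rate of 405 nm absorbance rise with 12 mM p-nitrophenyl phosphate in diethanolamine/MgCl2/homoarginine buffer after 65 °C, 10 min heat inactivation, reports hTERT or CMV promoter activity. G418-selected stable H1299 or hTERT-BJ1 reporter lines were exposed to drug for 24 h.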

The subject of the next series is rat glioma C6 cells. The series can be described thus: Cytotoxicity assay (XTT colorimetric), C6 cells. The class given is cell-based. Particulars: 48 h of drug exposure. (Formazan colour is commonly taken as a measure of viable cells.)
A further series relates to hTERT-BJ1 cells. Description: MTT relative viability, PhTERT-SEAP (hTERT-BJ1) cells. As to conditions: PhTERT-SEAP (hTERT-BJ1).
The test system of series [2] is transcriptional activity of hTERT. Description: SEAP reporter assay of hTERT expression, PhTERT-SEAP (H1299). As to conditions: PhTERT-SEAP(hTERT-H1299). The class given is cell-based, human. A digest of the protocol:
as §1
In general terms: In a reporter assay the amount or activity of a reporter protein is the signal.

Series [3] has as its system non-small-cell lung cancer cells H1299. The series can be described thus: MTT relative viability, PhTERT-SEAP (H1299) cells. Particulars: PhTERT-SEAP(hTERT-H1299).
Experimental: The tetrazolium reagent (MTT; 3-(4,5-di-methylthiazol)-2,5-diphenyl tetrazolium bromide, USB) was designed to yield a colored formazan upon metabolic reduction by viable cells. Approximately […] cells were plated onto each well of a 96-well plate and incubated in 5% CO2 at 37° C. for 24 h. To assess the in vitro cytotoxicity, each compound was dissolved in DMSO and prepared immediately before the experiments and was diluted into the complete medium before addition to cell cultures. Test compounds were then added to the culture medium for designated various concentrations. After 48 h, an amount of 25 μL of MTT was added to each well, and the samples were incubated at 37° C. for 4 h. A 100 μL solution of lysis buffer containing 20% SDS and 50% N,N-dimethylformamide was added to each well and incubated at 37° C. for another 16 h. The absorbency at 550 nm was measured using an ELISA reader.
Non small lung cancer cells H1299 (telomerase positive) were grown in RPMI 1640 media supplemented with 10% fetal bovine serum, 100 units/mL penicillin and 100 mg/mL streptomycin in a humidified atmosphere with 5% CO2 at 37° C. The hTERT immortalized hTERT-BJ1 (BD Biosciences Clontech)^39 were grown in DMEM media supplemented with 10% fetal calf serum, 100 units/mL penicillin and 100 mg/mL streptomycin, 1 mM sodium pyruvate, and 4 mM I-arginine in a humidified atmosphere with 5% CO2 at 37° C. Culture media were changed every 3 days. […] The stable clones derived from H1299 or hTERT-BJ1 were cultured using conditions that are similar to their parental cells.
The test system of series [4] is hepatitis B virus transfected hepatoma cell lines, HepG 2.2.15 cells. The series can be described thus: Cytotoxicity assay, 2.2.15 cells. The class given is cell-based, human. As to conditions: 48 h of drug exposure.
In a further series the test system is human hepatoma G2 cells. The series can be described thus: Cytotoxicity assay (XTT colorimetric), Hep G2. As to conditions: 48 h of drug exposure. The class given is cell-based.

As to `O=C1c2ccccc2C(=O)c2c(NC(=O)C3CCCC3)ccc(NC(=O)C3CCCC3)c21` [VI20, 1,4-Bis(cyclopentaneamido)-9,110-anthracenedione], the “Relative SEAP activity (%)” value is reported as 85 ± 7.7% in series [1] (2.3 μM); 93 ± 18.5% in series [1] (23 μM); 63 ± 36.5% in series [1] (233 μM); 119 ± 8.5% in series [2] (2.3 μM); 118 ± 9.2% in series [2] (23 μM); 113 ± 8.9% in series [2] (233 μM). Moreover, the SEAP/vibility in series [1] (2.3 μM) came out at 0.81; in series [1] (23 μM), 0.90; in series [1] (233 μM), 0.67; in series [2] (2.3 μM), 1.11; in series [2] (23 μM), 1.15; in series [2] (233 μM), 1.23. In addition, the half-maximal inhibitory concentration (IC50) (with rat glioma C6 cells; in series [4]; in the series with human hepatoma G2 cells) was greater than 20 µM each time. The “Relative MTT viability (%)” value with hTERT-BJ1 cells (2.3 μM) was determined as 106 ± 2.3%; with hTERT-BJ1 cells (23 μM), 103 ± 4.4%; in the series with hTERT-BJ1 cells (233 μM), 93 ± 5.7%; in series [3] (2.3 μM), 107 ± 6.1%; in series [3] (23 μM), 103 ± 6.1%; in series [3] (233 μM) it was 92 ± 8.6%.

Take `O=C1c2ccccc2C(=O)c2c(NC(=O)C3CC3)ccc(NC(=O)C3CC3)c21` [VI21, 1,4-Bis(cyclopropionamido)-9,10-anthracenedione]: the “Relative SEAP activity (%)” value in series [1] (2.6 μM) is on record as 64 ± 9.5%; in series [1] (26 μM) it was 54 ± 8.8%; in series [1] (267 μM), 43 ± 8.3%; in series [2] (2.6 μM), 108 ± 4.9%; in series [2] (26 μM), 106 ± 7.3%; in series [2] (267 μM) it was 92 ± 5.9%. For the same compound, the SEAP/vibility stood at 0.62 in series [1] (2.6 μM); 0.66 in series [1] (26 μM); 0.74 in series [1] (267 μM); 1.14 in series [2] (2.6 μM); 1.21 in series [2] (26 μM); 2.23 in series [2] (267 μM). Also, the IC50 (in the series on rat glioma C6 cells; in series [4]; in the series with human hepatoma G2 cells) was greater than 20 µM throughout. Moreover, the “Relative MTT viability (%)” value in the series with hTERT-BJ1 cells (2.6 μM) amounted to 103 ± 6.8%; in the series on hTERT-BJ1 cells (26 μM) it was 82 ± 5.9%; in the series on hTERT-BJ1 cells (267 μM), 58 ± 4.1%; in series [3] (2.6 μM) it was 95 ± 4.2%; in series [3] (26 μM), 88 ± 4.2%; in series [3] (267 μM), 41 ± 4.6%.

Take `O=C(Nc1ccc(NC(=O)c2cc(F)cc(Cl)c2Cl)c2c1C(=O)c1ccccc1C2=O)c1cc(F)cc(Cl)c1Cl` [VI23]: the “Relative SEAP activity (%)” value in series [1] (1.6 μM) came to 113 ± 16.0%; in series [1] (16 μM), 131 ± 19.1%; in series [1] (161 μM) it was 106 ± 17.3%; in series [2] (1.6 μM), 102 ± 4.1%; in series [2] (16 μM), 102 ± 5.1%; in series [2] (161 μM), 83 ± 4.0%. The SEAP/vibility in series [1] (1.6 μM) was 1.02; in series [1] (16 μM), 1.20; in series [1] (161 μM) it was 1.05; in series [2] (1.6 μM) it was 1.04; in series [2] (16 μM), 0.99; in series [2] (161 μM), 0.95. Moreover, the IC50 (in the series on rat glioma C6 cells; in series [4]; in the series with human hepatoma G2 cells) was greater than 20 µM in each case. The “Relative MTT viability (%)” value in the series with hTERT-BJ1 cells (1.6 μM) was determined as 111 ± 6.8%; in the series with hTERT-BJ1 cells (16 μM), 110 ± 7.1%; with hTERT-BJ1 cells (161 μM), 101 ± 6.6%; in series [3] (1.6 μM) it was 98 ± 7.0%; in series [3] (16 μM), 103 ± 8.7%; in series [3] (161 μM), 87 ± 5.1%.

Regarding `O=C(Nc1ccc(NC(=O)c2ccco2)c2c1C(=O)c1ccccc1C2=O)c1ccco1` [VI24, 1,4-Bis(2-furoylamido)-9,10-anthracenedione], the “Relative SEAP activity (%)” value in series [1] (2.3 μM) was found to be 39 ± 7.8%; in series [1] (23 μM) it was 45 ± 11.0%; in series [1] (234 μM), 37 ± 15.0%; in series [2] (2.3 μM), 99 ± 7.8%; in series [2] (23 μM), 97 ± 4.6%; in series [2] (234 μM), 90 ± 2.9%. In addition, the SEAP/vibility in series [1] (2.3 μM) is given as 0.43; in series [1] (23 μM), 0.65; in series [1] (234 μM), 0.51; in series [2] (2.3 μM), 0.99; in series [2] (23 μM) it was 1.30; in series [2] (234 μM), 2.83. Further, the IC50 (in the series with rat glioma C6 cells; in series [4]; in the series with human hepatoma G2 cells) was greater than 20 µM each time. In addition, the “Relative MTT viability (%)” value in the series with hTERT-BJ1 cells (2.3 μM) is 91 ± 9.5%; with hTERT-BJ1 cells (23 μM), 69 ± 10.7%; in the series on hTERT-BJ1 cells (234 μM) it was 72 ± 11.3%; in series [3] (2.3 μM), 101 ± 6.0%; in series [3] (23 μM), 75 ± 3.9%; in series [3] (234 μM) it was 32 ± 5.1%.

With `Cc1cc(C(=O)Nc2ccc(NC(=O)c3cc(C)oc3C)c3c2C(=O)c2ccccc2C3=O)c(C)o1` [VI26, 1,4-Bis(2,5-dimethylfuran-3-carbonylamido)-9,10-anthracenedione], the “Relative SEAP activity (%)” value is 84 ± 13.3% in series [1] (2.0 μM); 79 ± 14.7% in series [1] (20 μM); 81 ± 16.1% in series [1] (207 μM); 104 ± 10.8% in series [2] (2.0 μM); 103 ± 10.0% in series [2] (20 μM); 98 ± 10.5% in series [2] (207 μM). For the same compound, the SEAP/vibility in series [1] (2.0 μM) came to 0.83; in series [1] (20 μM) it was 0.78; in series [1] (207 μM), 0.88; in series [2] (2.0 μM), 1.20; in series [2] (20 μM), 1.46; in series [2] (207 μM), 2.10. The IC50 (in the series with rat glioma C6 cells; in series [4]; in the series on human hepatoma G2 cells) was greater than 20 µM in each case. Further, the “Relative MTT viability (%)” value with hTERT-BJ1 cells (2.0 μM) is reported as 101 ± 6.2%; in the series with hTERT-BJ1 cells (20 μM), 101 ± 5.8%; with hTERT-BJ1 cells (207 μM), 93 ± 7.1%; in series [3] (2.0 μM) it was 87 ± 4.9%; in series [3] (20 μM), 71 ± 2.3%; in series [3] (207 μM), 47 ± 2.6%.

Take `O=C(CSc1ccccc1)Nc1ccc(NC(=O)CSc2ccccc2)c2c1C(=O)c1ccccc1C2=O` [VI28, 1,4-Bis(phenylthioacetamido)-9,10-anthracenedione]: the “Relative SEAP activity (%)” value in series [1] (1.8 μM) was 14 ± 14.7%; in series [1] (18 μM) it was 23 ± 9.5%; in series [1] (185 μM), 7 ± 9.6%; in series [2] (1.8 μM), 93 ± 3.2%; in series [2] (18 μM), 92 ± 3.5%; in series [2] (185 μM) it was 80 ± 4.0%. The SEAP/vibility in series [1] (1.8 μM) was found to be 0.12; in series [1] (18 μM), 0.21; in series [1] (185 μM) it was 0.12; in series [2] (1.8 μM) it was 0.89; in series [2] (18 μM), 0.96; in series [2] (185 μM), 1.35. Also, the IC50 (with rat glioma C6 cells; in series [4]; with human hepatoma G2 cells) was greater than 20 µM each time. Moreover, the “Relative MTT viability (%)” value came to 115 ± 4.8% in the series on hTERT-BJ1 cells (1.8 μM); 105 ± 6.7% with hTERT-BJ1 cells (18 μM); 60 ± 2.3% in the series on hTERT-BJ1 cells (185 μM); 104 ± 5.6% in series [3] (1.8 μM); 96 ± 4.3% in series [3] (18 μM); 59 ± 3.8% in series [3] (185 μM).
